A word on the inhibition: it is the percentage by which the read-out fell short of the control.

Inhibition and fold change (FC) data for three compounds are collected here from ChEMBL document CHEMBL5653631, “A Potent and Selective ULK1 Inhibitor Suppresses Autophagy and Sensitizes Cancer Cells to Nutrient Stress” (iScience, 2018).

The target of assay [1] is Focal adhesion kinase 1 (Homo sapiens) (UniProt Q05397). As to the kind of experiment: Inhibition of human recombinant FAK at 40 nM in presence of ATP by radiometric assay relative to control.
Sequence of Focal adhesion kinase 1 (Homo sapiens) (Q05397 2-1052 limits assumed): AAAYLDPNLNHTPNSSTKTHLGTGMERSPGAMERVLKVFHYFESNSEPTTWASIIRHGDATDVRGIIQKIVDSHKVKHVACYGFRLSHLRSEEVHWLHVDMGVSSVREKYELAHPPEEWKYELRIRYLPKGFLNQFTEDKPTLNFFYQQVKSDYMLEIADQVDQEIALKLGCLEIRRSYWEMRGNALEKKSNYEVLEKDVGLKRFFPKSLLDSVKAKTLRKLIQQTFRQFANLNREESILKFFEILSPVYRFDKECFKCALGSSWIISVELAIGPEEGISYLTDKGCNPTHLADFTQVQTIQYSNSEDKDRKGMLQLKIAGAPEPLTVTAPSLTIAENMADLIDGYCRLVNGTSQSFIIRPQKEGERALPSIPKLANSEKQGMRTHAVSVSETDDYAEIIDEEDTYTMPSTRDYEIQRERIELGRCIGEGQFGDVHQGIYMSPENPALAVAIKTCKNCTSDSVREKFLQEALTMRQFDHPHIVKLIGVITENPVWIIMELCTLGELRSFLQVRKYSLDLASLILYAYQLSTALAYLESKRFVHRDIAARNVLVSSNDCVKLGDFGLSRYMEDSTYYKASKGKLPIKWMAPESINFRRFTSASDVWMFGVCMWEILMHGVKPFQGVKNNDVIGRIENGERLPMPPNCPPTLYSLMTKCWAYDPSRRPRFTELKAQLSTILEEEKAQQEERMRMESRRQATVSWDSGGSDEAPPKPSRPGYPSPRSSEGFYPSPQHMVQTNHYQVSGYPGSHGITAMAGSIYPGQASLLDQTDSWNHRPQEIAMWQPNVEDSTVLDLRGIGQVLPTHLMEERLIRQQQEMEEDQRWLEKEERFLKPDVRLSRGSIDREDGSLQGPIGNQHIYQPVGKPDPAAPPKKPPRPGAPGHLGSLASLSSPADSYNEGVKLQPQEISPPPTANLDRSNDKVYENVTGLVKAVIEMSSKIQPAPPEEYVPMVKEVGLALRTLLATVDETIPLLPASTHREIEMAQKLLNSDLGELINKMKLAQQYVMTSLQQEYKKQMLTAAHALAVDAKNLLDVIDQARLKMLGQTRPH
In assay [2] the target is T1, Testis-specific serine/threonine-protein kinase 2 (Homo sapiens) (UniProt Q96PF2).
T1 sequence (whole entry): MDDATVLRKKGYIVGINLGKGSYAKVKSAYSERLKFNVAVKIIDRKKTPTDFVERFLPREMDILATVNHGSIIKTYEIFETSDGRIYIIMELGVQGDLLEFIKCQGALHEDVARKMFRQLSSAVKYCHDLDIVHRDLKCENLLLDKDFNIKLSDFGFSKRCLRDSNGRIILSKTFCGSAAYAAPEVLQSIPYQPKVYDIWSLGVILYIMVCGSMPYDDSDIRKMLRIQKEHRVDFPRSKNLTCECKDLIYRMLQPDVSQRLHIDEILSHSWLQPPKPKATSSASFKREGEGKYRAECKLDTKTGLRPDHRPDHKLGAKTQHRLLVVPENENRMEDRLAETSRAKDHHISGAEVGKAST
Description: Inhibition of human recombinant TSSK2 at 40 nM in presence of ATP by radiometric assay relative to control.

Assay [3] has as its target DNA-PK/Ku70/Ku85 (Homo sapiens) (UniProt P78527+P12956+P13010). As to the kind of experiment: Inhibition of human recombinant DNAPK at 40 nM in presence of ATP by radiometric assay relative to control. It counts as protein-complex assay.
For assay [4], the target named is Mitogen-activated protein kinase kinase kinase kinase 1 (Homo sapiens) (UniProt Q92918). As to the kind of experiment: Inhibition of human recombinant HPK1 at 500 nM in presence of ATP by radiometric assay relative to control.
Sequence of Mitogen-activated protein kinase kinase kinase kinase 1 (Homo sapiens) (Q92918 whole entry, looked up): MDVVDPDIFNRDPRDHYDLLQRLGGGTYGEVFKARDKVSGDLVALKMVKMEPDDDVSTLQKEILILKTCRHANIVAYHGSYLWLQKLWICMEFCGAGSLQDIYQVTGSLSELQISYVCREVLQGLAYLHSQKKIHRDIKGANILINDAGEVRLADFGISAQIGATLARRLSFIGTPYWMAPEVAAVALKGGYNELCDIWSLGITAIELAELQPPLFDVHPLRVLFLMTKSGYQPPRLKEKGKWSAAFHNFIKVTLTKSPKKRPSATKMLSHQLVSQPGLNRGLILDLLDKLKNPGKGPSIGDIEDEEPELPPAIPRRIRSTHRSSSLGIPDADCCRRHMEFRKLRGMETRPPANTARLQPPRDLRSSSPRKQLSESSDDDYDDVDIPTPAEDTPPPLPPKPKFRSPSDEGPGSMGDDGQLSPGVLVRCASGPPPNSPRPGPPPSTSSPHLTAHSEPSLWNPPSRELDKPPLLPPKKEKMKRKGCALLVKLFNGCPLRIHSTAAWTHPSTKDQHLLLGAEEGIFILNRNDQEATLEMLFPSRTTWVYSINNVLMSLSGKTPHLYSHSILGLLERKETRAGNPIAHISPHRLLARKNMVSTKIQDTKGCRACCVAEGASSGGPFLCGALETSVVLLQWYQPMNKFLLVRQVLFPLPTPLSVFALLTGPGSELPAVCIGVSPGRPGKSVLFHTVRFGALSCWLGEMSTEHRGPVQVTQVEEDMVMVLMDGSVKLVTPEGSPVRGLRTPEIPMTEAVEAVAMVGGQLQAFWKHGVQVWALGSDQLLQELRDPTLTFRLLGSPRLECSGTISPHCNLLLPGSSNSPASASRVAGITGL
The target of assay [5] is T2, Mitogen-activated protein kinase kinase kinase 2 (Homo sapiens) (UniProt Q9Y2U5).
T2 sequence (whole entry): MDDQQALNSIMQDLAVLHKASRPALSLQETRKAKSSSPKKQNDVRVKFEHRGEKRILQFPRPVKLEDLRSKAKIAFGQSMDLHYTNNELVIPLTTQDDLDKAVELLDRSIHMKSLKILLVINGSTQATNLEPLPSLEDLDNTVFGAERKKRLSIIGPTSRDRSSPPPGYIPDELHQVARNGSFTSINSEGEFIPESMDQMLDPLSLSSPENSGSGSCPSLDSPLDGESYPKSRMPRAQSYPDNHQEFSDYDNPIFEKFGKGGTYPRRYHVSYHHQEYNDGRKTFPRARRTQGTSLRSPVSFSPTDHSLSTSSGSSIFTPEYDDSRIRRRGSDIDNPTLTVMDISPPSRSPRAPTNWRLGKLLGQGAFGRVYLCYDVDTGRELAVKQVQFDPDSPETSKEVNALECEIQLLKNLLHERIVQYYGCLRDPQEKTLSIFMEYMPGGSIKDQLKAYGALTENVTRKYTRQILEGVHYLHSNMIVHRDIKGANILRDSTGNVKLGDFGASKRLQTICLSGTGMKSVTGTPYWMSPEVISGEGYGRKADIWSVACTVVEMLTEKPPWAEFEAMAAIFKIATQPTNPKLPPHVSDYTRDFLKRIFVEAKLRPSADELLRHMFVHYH
As to the kind of experiment: Inhibition of human recombinant MAP3K2 at 500 nM related to control ULK1.

Assay [6] addresses T3, Serine/threonine-protein kinase Chk1 (Homo sapiens) (UniProt O14757).
T3 sequence (whole entry): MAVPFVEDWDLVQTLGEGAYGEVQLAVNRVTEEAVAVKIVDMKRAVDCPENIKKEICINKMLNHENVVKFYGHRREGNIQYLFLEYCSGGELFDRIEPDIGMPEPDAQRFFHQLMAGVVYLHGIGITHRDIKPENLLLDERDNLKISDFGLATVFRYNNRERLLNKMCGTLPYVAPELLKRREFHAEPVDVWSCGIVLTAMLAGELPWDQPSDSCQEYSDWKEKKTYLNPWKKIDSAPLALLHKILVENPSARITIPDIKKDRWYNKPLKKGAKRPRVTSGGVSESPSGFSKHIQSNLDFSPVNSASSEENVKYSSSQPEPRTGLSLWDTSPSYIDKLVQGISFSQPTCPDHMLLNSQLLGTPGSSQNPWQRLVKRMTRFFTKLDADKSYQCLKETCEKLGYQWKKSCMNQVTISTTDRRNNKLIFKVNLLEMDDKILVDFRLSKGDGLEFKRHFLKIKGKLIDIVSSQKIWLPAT
As to the kind of experiment: Inhibition of human recombinant CHK1 at 500 nM related to control ULK1.

The target in assay [7] is Leucine-rich repeat serine/threonine-protein kinase 2 (Homo sapiens) (UniProt Q5S007). Description: Inhibition of human recombinant LRRK2 at 500 nM in presence of ATP by radiometric assay relative to control.
Assay [8] deals with SRSF protein kinase 1 (Homo sapiens) (UniProt Q96SB4). As to the kind of experiment: Inhibition of human recombinant SRPK1 at 500 nM in presence of ATP by radiometric assay relative to control.
Sequence of SRSF protein kinase 1 (Homo sapiens) (Q96SB4 whole entry): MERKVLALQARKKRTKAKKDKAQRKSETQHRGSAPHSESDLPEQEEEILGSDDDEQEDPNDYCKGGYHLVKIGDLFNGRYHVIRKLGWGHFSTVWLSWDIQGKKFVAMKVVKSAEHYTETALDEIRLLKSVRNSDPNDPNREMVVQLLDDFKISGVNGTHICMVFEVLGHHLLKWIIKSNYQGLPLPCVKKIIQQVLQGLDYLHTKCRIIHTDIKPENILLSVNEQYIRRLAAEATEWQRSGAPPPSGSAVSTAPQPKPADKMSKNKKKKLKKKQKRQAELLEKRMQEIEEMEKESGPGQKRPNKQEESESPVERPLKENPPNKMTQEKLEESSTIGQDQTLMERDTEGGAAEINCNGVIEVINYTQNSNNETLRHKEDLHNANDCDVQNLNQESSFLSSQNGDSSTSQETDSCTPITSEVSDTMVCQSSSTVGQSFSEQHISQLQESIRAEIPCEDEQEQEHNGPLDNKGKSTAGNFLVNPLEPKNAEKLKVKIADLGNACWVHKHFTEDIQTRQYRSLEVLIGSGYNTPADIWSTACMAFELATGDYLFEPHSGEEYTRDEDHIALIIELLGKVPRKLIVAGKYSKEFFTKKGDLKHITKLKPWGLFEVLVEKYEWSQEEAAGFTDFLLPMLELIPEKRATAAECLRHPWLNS
Assay [9] addresses Serine/threonine-protein kinase 25 (Homo sapiens) (UniProt O00506). As to the kind of experiment: Inhibition of human recombinant YSK1 at 500 nM in presence of ATP by radiometric assay relative to control.
The target in assay [10] is Serine/threonine-protein kinase Nek4 (Homo sapiens) (UniProt P51957). Description: Inhibition of human recombinant NEK4 at 500 nM in presence of ATP by radiometric assay relative to control.
The target in assay [11] is Fibroblast growth factor receptor 3 (Homo sapiens) (UniProt P22607). Description: Inhibition of human recombinant FGFR3 at 500 nM related to control ULK1.
Sequence of Fibroblast growth factor receptor 3 (Homo sapiens) (P22607 23-806 limits assumed): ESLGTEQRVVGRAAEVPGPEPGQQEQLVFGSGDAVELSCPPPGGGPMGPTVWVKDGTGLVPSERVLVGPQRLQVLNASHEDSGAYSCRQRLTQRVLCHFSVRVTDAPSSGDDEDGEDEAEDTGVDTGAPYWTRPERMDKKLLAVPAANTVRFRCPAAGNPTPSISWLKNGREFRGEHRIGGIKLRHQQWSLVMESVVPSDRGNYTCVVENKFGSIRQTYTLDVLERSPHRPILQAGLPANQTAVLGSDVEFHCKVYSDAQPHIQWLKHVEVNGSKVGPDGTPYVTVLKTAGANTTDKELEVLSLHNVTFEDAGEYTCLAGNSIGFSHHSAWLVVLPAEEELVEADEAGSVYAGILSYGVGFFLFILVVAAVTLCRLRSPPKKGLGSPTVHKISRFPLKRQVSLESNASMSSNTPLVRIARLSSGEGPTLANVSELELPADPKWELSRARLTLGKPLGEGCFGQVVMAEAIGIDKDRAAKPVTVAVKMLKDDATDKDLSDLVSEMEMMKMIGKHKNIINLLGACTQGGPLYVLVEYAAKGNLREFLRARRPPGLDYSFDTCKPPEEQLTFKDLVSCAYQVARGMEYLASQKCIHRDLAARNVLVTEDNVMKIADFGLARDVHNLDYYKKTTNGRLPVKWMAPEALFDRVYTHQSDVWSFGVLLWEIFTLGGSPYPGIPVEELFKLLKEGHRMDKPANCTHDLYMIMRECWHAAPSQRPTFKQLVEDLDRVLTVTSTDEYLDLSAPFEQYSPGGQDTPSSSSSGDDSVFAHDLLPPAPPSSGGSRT
Assay [12] deals with Casein kinase I isoform gamma-2 (Homo sapiens) (UniProt P78368). As to the kind of experiment: Inhibition of human recombinant CK1g2 at 500 nM related to control ULK1.
In assay [13] the target is Protein kinase C gamma type (Homo sapiens) (UniProt P05129). Description: Inhibition of human recombinant PKCg at 15 nM in presence of ATP by radiometric assay relative to control.
The target of assay [14] is Hepatocyte growth factor receptor MET (Homo sapiens) (UniProt P08581). Description: Inhibition of human recombinant MET at 15 nM in presence of ATP by radiometric assay relative to control.
For assay [15], the target named is Homeodomain-interacting protein kinase 1 (Homo sapiens) (UniProt Q86Z02). As to the kind of experiment: Inhibition of human recombinant HIPK1 at 15 nM related to control ULK1.
Assay [16] addresses Death-associated protein kinase 2 (Homo sapiens) (UniProt Q9UIK4). As to the kind of experiment: Inhibition of human recombinant DAPK2 at 15 nM in presence of ATP by radiometric assay relative to control.
Assay [17] concerns the target Serine/threonine-protein kinase NIM1 (Homo sapiens) (UniProt Q8IY84). As to the kind of experiment: Inhibition of human recombinant NIM1 at 15 nM related to control ULK1.

Sequence of Death-associated protein kinase 2 (Homo sapiens) (Q9UIK4 whole entry, looked up): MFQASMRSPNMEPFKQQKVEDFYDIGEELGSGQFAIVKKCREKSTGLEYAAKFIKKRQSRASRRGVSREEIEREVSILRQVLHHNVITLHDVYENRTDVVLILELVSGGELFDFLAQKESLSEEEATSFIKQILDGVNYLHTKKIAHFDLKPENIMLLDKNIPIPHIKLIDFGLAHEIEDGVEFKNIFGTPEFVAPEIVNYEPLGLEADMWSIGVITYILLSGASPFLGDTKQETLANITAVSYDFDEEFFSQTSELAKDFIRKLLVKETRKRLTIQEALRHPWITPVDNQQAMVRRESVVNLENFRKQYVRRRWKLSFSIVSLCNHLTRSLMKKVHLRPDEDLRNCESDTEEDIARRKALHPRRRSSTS
Sequence of Serine/threonine-protein kinase 25 (Homo sapiens) (O00506 whole entry, looked up): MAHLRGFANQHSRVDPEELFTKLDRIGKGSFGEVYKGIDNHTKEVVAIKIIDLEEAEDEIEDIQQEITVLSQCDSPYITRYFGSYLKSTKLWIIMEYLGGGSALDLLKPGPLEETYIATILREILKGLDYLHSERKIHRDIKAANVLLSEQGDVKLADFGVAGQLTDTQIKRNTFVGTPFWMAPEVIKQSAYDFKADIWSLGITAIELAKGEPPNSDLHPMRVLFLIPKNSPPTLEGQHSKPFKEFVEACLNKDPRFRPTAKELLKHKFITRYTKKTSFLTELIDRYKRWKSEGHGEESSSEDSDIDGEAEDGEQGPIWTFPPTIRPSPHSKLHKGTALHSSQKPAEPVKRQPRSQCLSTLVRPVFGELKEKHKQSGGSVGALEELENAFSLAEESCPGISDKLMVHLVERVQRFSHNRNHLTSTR

Regarding `O=C(N[C@@H](C1CC1)C(F)(F)F)c1cc(-c2cnn3cc(-c4ccc(F)cc4)cnc23)cs1`, the values for the inhibition in [1], in assay [2] and in [3] were 0%, 0% and 9%, respectively.

`CNC(=O)c1ccccc1Oc1nc(Nc2cc(OC)c(OC)c(OC)c2)ncc1Br`: the inhibition in assay [4] was 32%; in [7], 35%; in assay [8], 10%; in assay [9], 12%; in assay [10], 23%. Moreover, the fold change (FC) in [5] was 0.04; in assay [6], 0.05; in assay [11], 0.57; in assay [12] it was 0.

On to `CC(C)[C@H](NC(=O)c1cc(-c2cnn3cc(-c4ccc(OCCN5CCCCC5)cc4)cnc23)cs1)C(F)(F)F`, for which the values for the inhibition in [13], in assay [14] and in assay [16] were 0%, 0% and 6%, respectively. The fold change (FC) was found to be 0 in assay [15] and 0.07 in assay [17].
